Measurements from patent US11331368B2, “Angiotensin receptor agonists and uses thereof” (Monash University, priority 2017, dated 2022).

How the values were obtained:
[1] = tested on: stroke-prone spontaneously hypertensive rats (SHRSP); assay: Stroke-prone spontaneously hypertensive rats (SHRSP), 4-week infusion; type: in vivo, rat; settings: 75 pmol/kg/min s.c. for 4 weeks
Method: FIG. 27: AT2R stimulation by β-Pro^7-Ang III attenuates cardiac fibrosis in stroke-prone spontaneously hypertensive rats (SHRSP). Mean data for cardiac fibrosis determined by picrosirius red staining of transverse heart sections, under bright field microscopy, taken from ˜25-week old, male stroke-prone spontaneously hypertensive rats (SHRSP) that received either saline or β-Pro^7-Ang III (75 pmol/kg/min subcutaneously via osmotic mini-pump) for 4 weeks (n=3-4). Data expressed as mean±s.e.m of percentage positive stained area for fibrosis. **P<0.01 versus saline (unpaired t-test).
For the first time, β-Pro^7-Ang III was tested at the same dose, duration and route of administration (75 pmol/kg/min subcutaneously via osmotic mini-pump for 4 weeks) in adult male stroke-prone spontaneously hypertensive rats (SHRSP).

[2] = tested on: male FVB/N mice on high salt diet, liver; assay: High salt (5%) diet intervention model, liver; type: in vivo, mouse; settings: weeks 5-8; peptides 75 pmol/kg/min s.c.; Cand 2 mg/kg/day, captopril 3 mg/kg/day
[3] = tested on: mouse aortae; assay: Vasorelaxation of pre-contracted mouse aortae; settings: 0.1-1000 nM, pre-contracted with U46619
Source text: FIG. 17: The selective AT2R ligands, β-Pro^7-Ang III and D-Arg^2-β-Pro^7-Ang III, are functional agonists in vasculature.

[4] = target: T1, human AT1R (Homo sapiens, UniProt P30556); assay: Competition radioligand binding (125I-Sar1-Ile8-AngII) in AT1R-transfected HEK-293 cells
T1 construct: expressed in transfected cells
T1 sequence (P30556 1-359): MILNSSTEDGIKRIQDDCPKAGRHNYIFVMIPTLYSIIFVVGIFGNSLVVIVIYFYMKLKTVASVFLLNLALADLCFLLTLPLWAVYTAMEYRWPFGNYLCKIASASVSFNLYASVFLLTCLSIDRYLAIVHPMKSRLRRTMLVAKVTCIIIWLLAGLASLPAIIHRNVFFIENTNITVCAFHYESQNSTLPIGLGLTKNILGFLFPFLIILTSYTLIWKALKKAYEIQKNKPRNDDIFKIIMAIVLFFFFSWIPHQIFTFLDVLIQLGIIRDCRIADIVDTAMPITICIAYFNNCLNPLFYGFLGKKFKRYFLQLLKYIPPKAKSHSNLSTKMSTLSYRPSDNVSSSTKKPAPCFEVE

binding at AT1R (displacement of 125I-Sar1-Ile8-AngII), in words [4]: bind poorly
Substance: Arg-Val-Tyr-Ile-His-β-Pro-Phe [βPro-Ang III]
SBP in SHRSP [1]: did not affect SBP
cardiac fibrosis (picrosirius red) in SHRSP [1]: significantly reduced cardiac fibrosis
liver fibrosis (picrosirius red, polarized light) [2]: appears to attenuate
liver steatosis (Oil Red O) [2]: partially reversed
vasorelaxation of pre-contracted aortae [3]: concentration-dependent vasorelaxation
